Experimental data published in paper PMC11324666, “Two novel in vitro assays to screen chemicals for their capacity to inhibit thyroid hormone transmembrane transporter proteins OATP1C1 and OAT4” (Archives of Toxicology, 2024).
Read-outs that look alike come from different tables or passages of the source.

How the values were obtained:
OATP1C1 [1] = biological target: T1, OATP1C1 (Homo sapiens, UniProt Q9NYB5); assay: CHO-K1 OATP1C1 TH uptake assay with 125I-T4 tracer; assay type: cell-based
T1 construct: host or cells: CHO-K1
T1 sequence (Q9NYB5 1-712): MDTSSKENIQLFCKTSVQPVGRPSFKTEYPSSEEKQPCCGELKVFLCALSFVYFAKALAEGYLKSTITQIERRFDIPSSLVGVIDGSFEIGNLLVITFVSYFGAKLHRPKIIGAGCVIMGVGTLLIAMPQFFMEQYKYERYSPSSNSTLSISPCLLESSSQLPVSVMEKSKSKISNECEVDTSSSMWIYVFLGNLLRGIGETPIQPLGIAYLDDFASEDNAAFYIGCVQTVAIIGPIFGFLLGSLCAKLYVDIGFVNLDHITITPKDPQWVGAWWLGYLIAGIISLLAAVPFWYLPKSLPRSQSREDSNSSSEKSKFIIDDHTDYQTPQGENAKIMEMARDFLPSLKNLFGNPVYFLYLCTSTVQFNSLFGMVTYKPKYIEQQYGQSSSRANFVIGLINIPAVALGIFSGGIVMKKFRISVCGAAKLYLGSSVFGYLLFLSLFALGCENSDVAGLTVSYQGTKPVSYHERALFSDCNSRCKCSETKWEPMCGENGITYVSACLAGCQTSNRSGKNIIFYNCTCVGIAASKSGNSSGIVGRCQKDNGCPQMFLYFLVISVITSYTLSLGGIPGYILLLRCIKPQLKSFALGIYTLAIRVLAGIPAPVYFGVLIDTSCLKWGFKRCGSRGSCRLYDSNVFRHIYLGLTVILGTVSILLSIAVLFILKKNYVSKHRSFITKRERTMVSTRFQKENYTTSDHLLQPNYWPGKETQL
Method: (§1) MDCK-OAT4 and MDCK-DEST cells were cultured in DMEM:F12 (L-glutamine, 15 mM HEPES) (Gibco) supplemented with (100 µg/mL penicillin + 100 µg/mL streptomycin), 10% fetal calf serum (Gibco) and 2 µg/mL blasticidin (Sigma). CHO-K1 OATP1C1 or WT cells were cultured in F12 nutrient mix (Gibco) supplemented with (100 µg/mL penicillin + 100 µg/mL streptomycin), 10% fetal calf serum (Gibco) and […] G418 (Sigma). All cell cultures were incubated at 37 °C with 5% CO2 saturation until 80% confluency. MDCK-OAT4 and MDCK-DEST cells were seeded in 96 wells plate at a density of 4 × 10^5 cells in 100 µL medium per well and incubated for 24 h before the start of the MDCK-OAT4 TH uptake assay. CHO-K1 OATP1C1 and WT cells were seeded in 96 wells plate at a density of 3 × 10^5 cells in 100 µL medium per well 72 h before the CHO-K1 OATP1C1 TH uptake assay. Medium from CHO-K1 OATP1C1 or WT assay plates was changed to serum-free F12 medium containing 5 mM sodium-butyrate 24 h before start of the CHO-K1 OATP1C1 TH uptake assay to increase transfected expression of SV-40 promotor plasmids.
(§2) Subsequently 10 µL of a tenfold stock of test compound in uptake buffer (solvent concentration 1% v/v) was added to each well. […] Cells were exposed at 37 °C for 20 min (MDCK-OAT4) or 30 min (CHO-K1 OATP1C1), unless stated differently. After exposure, cells were immediately washed with ice-cold PBS supplemented with 0.1% bovine serum albumin (BSA). Subsequently, cells were lysed in 50 µL of 0.1 M NaOH under continuous shaking at room temperature. After 20 min, cell lysates were manually transferred into separate 5 mL polypropylene tubes. One tube was also prepared with 10 µL of the T4 tracer solution. Radioactivity was measured in a Wizard^2 gamma counter (Perkin Elmer).
(§3) For the CHO-K1 OATP1C1 TH uptake assay total of 29 chemicals (Table 1) were selected for the EDC screening based on available literature data. […] The same chemicals were selected for the MDCK-OAT4 TH uptake assay, with the exception of BPF, VRP and TCS. […] The THTMT TH uptake assay was then performed as described earlier. […] A concentration of 100 µM ICG was used as a reference chemical for OATP1C1 and 100 µM LESI for OAT4. At least three independent experiments were performed for each chemical.
(§4) Raw values were normalized to the total amount of radioactivity in the T4 tracer solution. These values were expressed as a percentage of total radioactivity added (or uptake percentage) and used for all further data analysis. Statistically significant differences between the T4 uptake of transfected and wild type cells, in the presence or absence of inhibitor, were determined by two-way ANOVA (α = 5%, two-sided). […] In brief, uptake values were normalized to the median response of the vehicle and positive controls for each plate. […] Statistical analysis were performed using GraphPad Prism version 8 for Windows (GraphPad Software, San Diego, California USA) and SAS 9.3 (SAS Institute, Cary NC).

CHO-K1 OATP1C1 cells = settings: for Cytotoxicity IC10: concentration that inhibits cell viability by 10%, CHO-K1 OATP1C1 cells, 30 min exposure; for cytotoxic effects: at concentrations of the uptake assay, Figure S1
Method: (§5) Cell viability was assessed through the quantitation of ATP present in cells using the commercially available CellTiter-Glo® luminescent cell viability assay and performed according to the manufacturer’s instruction (Promega, Leiden, the Netherlands). Briefly, cells were seeded as described earlier in opaque-walled clear-bottom 96 well plates. On the day of the experiment, each well was washed with 200 µL phosphate buffered saline (PBS) and exposed to 80 µL of uptake buffer, 10 µL of a tenfold stock of test compound solved in uptake buffer or control and 10 µL of T4 (final concentration 10 nM). 0.1% DMSO was used as a solvent control, while 10% DMSO was used as a positive control. After exposure for the indicated times similar to THTMT TH uptake assay, cells were immediately washed with ice-cold PBS + 0.1%BSA and exposed to 100 µL of the CellTiter-Glo® Reagent. Plates were then shaken on an orbital shaker for 2 min and left to incubate at room temperature for 10 min. Luminescence was measured on a BioTek Cytation 5 microplate reader. […] Each individual experiment was repeated at least twice and contained three technical replicates of each control and concentration tested.
Figure S1. […] Blue dots indicate the plate medians from three or four independent experiments, all control and chemical concentrations were tested in triplicates per plate.

MDCK-OAT4 cells = assay: CellTiter-Glo luminescent cell viability assay in MDCK-OAT4 cells; settings: concentration that inhibits cell viability by 10%; MDCK-OAT4 cells, 20 min exposure
Method: as §5
Figure S2. […] Blue dots indicate the plate medians from three or four independent experiments, all control and chemical concentrations were tested in triplicates per plate. The black line indicates the best-fit concentrations response curve, the dotted line the corresponding 95% confidence interval.

OAT4 = biological target: T2, OAT4 (Homo sapiens, UniProt Q9NSA0); assay: MDCK-OAT4 TH uptake assay with 125I-T4 tracer; assay type: cell-based; settings: 10 nM T4, 20 min; for T4 uptake inhibition BMC20 (M), [CI]: concentration that inhibits 125I-T4 uptake by 20%, brackets = 95% CI; for 125I-T4 uptake compared to the vehicle control (range finding): single concentration 10 or 100 µM, below 80% = positive hit
T2 construct: V5 (from pLenti6/V5-DEST); expressed in transfected cells; host or cells: MDCK-1 (lentiviral transduction, blasticidin selection)
T2 sequence (Q9NSA0 1-550): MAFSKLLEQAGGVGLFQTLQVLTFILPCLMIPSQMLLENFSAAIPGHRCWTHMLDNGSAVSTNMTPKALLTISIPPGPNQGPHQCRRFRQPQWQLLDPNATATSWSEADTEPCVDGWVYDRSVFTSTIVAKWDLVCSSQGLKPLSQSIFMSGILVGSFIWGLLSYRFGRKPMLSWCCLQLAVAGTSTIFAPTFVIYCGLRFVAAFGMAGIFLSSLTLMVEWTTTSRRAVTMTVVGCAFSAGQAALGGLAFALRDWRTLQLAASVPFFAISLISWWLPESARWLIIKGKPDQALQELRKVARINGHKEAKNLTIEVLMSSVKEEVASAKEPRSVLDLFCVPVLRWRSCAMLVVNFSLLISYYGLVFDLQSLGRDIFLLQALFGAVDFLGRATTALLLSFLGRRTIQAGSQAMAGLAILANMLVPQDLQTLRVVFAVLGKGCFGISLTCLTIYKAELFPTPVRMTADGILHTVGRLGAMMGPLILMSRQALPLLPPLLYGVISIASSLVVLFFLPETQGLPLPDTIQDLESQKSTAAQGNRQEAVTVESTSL
Method: Subsequently OAT4 in pENTR™/D-TOPO® Vector was shuffled into the pLenti6/V5-DEST vector (Thermo Fisher) using Gateway™ LR Clonase™ II Enzyme mix (Thermo Fisher) according to the manufacture’s protocol.
To generate an OAT4 stable cell line, MDCK-1 cells were plated in 12-well plates with full growth medium and transduced with fresh viral supernatants in the absence of antibiotics in medium. After 2 days, MDCK-1 cells transduced with OAT4 (MDCK-OAT4) or empty vector (MDCK-DEST) were selected in full growth medium supplemented with 2 µg/mL blasticidin and further maintained under blasticidin selection.
as §1, §2
as §3, with “chemical. Each individual experiment contained three technical replicates of each control and concentration tested.” for “chemical.”
as §4

oatp1c1 [2] = test system: oatp1c1; parameters: method as in Westholm et al. (2009); settings: T4 1 nM; ref Westholm et al. (2009); read-out: IC50 of T4 transmembrane transport inhibition; cited from earlier work
[3] = concentration that inhibits 125I-T4 uptake by 20%, 10 nM T4, 30 min, brackets = 95% CI

O=C(O)CSc1nnc(Br)n1-c1ccc(C2CC2)c2ccccc12 [Lesinurad, reference compound]
T4 uptake inhibition BMC20 (M), [CI] (OATP1C1 [1]; [3]): 4.34E−07 [1.97E−07; 9.56E−07] M
Cytotoxicity IC10 (CHO-K1 OATP1C1 cells): > 100 µM
Cytotoxicity IC10 (MDCK-OAT4 cells): > 100 µM

Oc1cc(Cl)ccc1Oc1ccc(Cl)cc1Cl [Triclosan]
T4 uptake inhibition BMC20 (M), [CI] (OATP1C1 [1]): 2.30E−06 [1.38E−06; 3.83E−06] M
cytotoxic effects (CHO-K1 OATP1C1 cells): confounded by cytotoxic effects
Cytotoxicity IC10 (CHO-K1 OATP1C1 cells): 0.378 µM

β-Estradiol-3-sulfate [ß-Estrone-3-sulfate, reference compound]
T4 uptake inhibition BMC20 (M), [CI] (OAT4): 1.55E−06 [5.32E−07; 4.51E−06] M
125I-T4 uptake compared to the vehicle control (range finding) (OAT4): below 80%

O=C(O)Cc1ccccc1Nc1c(Cl)cccc1Cl [Diclofenac, reference compound]
T4 uptake inhibition BMC20 (M), [CI] (OAT4): 3.22E−06 [6.39E−07; 1.62E−05] M
IC50 (oatp1c1 [2]): 4 µM

[CH3][Hg][Cl] [MeHg, Methyl mercury]
125I-T4 uptake compared to the vehicle control (range finding) (OATP1C1 [1]; single concentration 10 or 100 µM, 10 nM T4, 30 min, below 80% = positive hit): ≥ 80%
125I-T4 uptake compared to the vehicle control (range finding) (OAT4): ≥ 80%

CC(C)(c1ccc(O)cc1)c1ccc(O)cc1 [Bisphenol A, Bisphenol-A]
T4 uptake inhibition BMC20 (M), [CI] (OATP1C1 [1]; [3]): 1.90E−05 [1.28E−05; 2.83E−05] M
cytotoxic effects (CHO-K1 OATP1C1 cells): confounded by cytotoxic effects
Cytotoxicity IC10 (CHO-K1 OATP1C1 cells): 4.34 µM

O=S(=O)(c1ccc(O)cc1)c1ccc(O)cc1 [Bisphenol S, Bisphenol-S]
125I-T4 uptake compared to the vehicle control (range finding) (OAT4): ≥ 80%

Oc1ccc(C2(c3ccc(O)cc3)CCCCC2)cc1 [Bisphenol Z, Bisphenol-Z]
Cytotoxicity IC10 (CHO-K1 OATP1C1 cells): > 100 µM

NC(Cc1cc(I)c(Oc2cc(I)c(O)c(I)c2)c(I)c1)C(=O)O (stereo not drawn) [T4, Thyroxine, reference compound]
uptake of 125I-T4 with excess of unlabeled T4 (OATP1C1 [1]; 1 µM unlabeled T4): quenched the uptake
